Measurements: patent US20220153746A1, “NITROGEN OXIDE-DONATING PDE-5 AND/OR PDE-6 INHIBITOR COMPOUNDS, AND USES THEREOF” (ILDONG PHARMACEUTICAL CO., LTD., priority 2020, published 2022)
Several values for one entry are separate records, joined by “and”; a condition that tells them apart may be missing. Identical values can stand only once. Like-named read-outs stand apart in the source and are kept apart here.

Assay: TD Phase (Groups 1 and 3): plasma and ocular tissue concentrations and pharmacokinetics of Compound 18 and its metabolite Compound 4 after once daily ocular instillation of Compound 18 nanosuspension for 7 days
Format: in vivo, New Zealand white rabbits
Conditions: for Compound 18 Lens Homogenate Conc.: homogenate dilution factor 5; for Cornea homogenate concentration: homogenate dilution factor 15; for concentration at 1 h: Group 1, 1 h
Source text: This example illustrates the procedures and results for the levels of Compound 18 and its metabolite Compound 4 in plasma and ocular tissues of normotensive rabbits following ocular instillation of Compound 18 once daily for 7 consecutive days.
Twenty five (25) male New Zealand white rabbits were divided into 5 groups of varying amounts of animals per group.
The Test article, Compound 18 was formulated as a 2% nanosuspension in DI water containing 0.2% PS80 (polyoxyethylenesorbitan, monooleate (Tween 80)) and 0.4% HPMC (hydroxypropylmethylcellulose) at pH 6.77. Referred to herein as “Compound 18 nanosuspension.”
The study consisted of three groups (Groups 1-3) of 19 male rabbits (NZW) that underwent once daily morning ocular installation (1 eyedrop) for 7 consecutive days (Day 0-6). Groups 4-5 each consisted of 3 male rabbits (NZW) that were not dosed.
Blood samples (1 mL) were collected from the jugular vein at the intervals set out below for each group. The samples were then inverted several times following collection and held on wet ice until centrifuged. Samples were centrifuged within 60 minutes of collection under refrigeration (set at 5° C. for 10 minutes at 2000 g.
Group 1 (Pilot Study, terminal blood collection): blood was collected from 3 animals at 1 hour post day 7 dose of Compound 18 nanosuspension.
Group 3 (TD Phase, terminal blood collection): blood was collected from 3 animals at 0.5 hour, 3 animals at 2 hours, 3 animals at 4 hours, and 3 animals at 8 hours post day 7 dose of Compound 18 nanosuspension.
Group 1 (Pilot Study): 3 animals were terminated at 1 hour post Day 7 dose of Compound 18 nanosuspension. Following blood collection and termination, ocular tissues (aqueous humor, vitreous humor, cornea, iris/ciliary body, lens, optic nerve, retina, sclera/choroid, and trabecular meshwork) were collected from each animal and the tissue weights were recorded. Note: sclera and choroid were collected together. Iris and ciliary body were collected together.
Group 3 (TD Phase): 3 animals were terminated at 0.5 hour, 3 animals at 2 hours, 3 animals at 4 hours, and 3 animals at 8 hours post Day 7 dose of Compound 18 nanosuspension. Following blood collection and termination, ocular tissues (aqueous humor, vitreous humor, cornea, iris/ciliary body, lens, optic nerve, retina, sclera/choroid, and trabecular meshwork) were collected from each animal and the tissue weights were recorded. Note: sclera and choroid were collected together. Iris and ciliary body were collected together.
Plasma and tissue samples from treated animals (Groups 1-3) were analyzed for Compound 18 and its metabolite Compound 4 concentrations by LC-MS/MS.
Pharmacokinetic analysis was conducted using WinNonlin Version 6.2.1 (Pharsight, Mountain View, Calif.), operating as a validated software system. Noncompartmental analysis was conducted using the extravascular administration model for ocular instillation dosing.
The peak plasma and ocular tissue concentration, time to achieve peak plasma and ocular tissue concentration, half-life, and area under the plasma and ocular tissue concentration-time curve (Cmax, Tmax, T1/2, and AUC) were calculated from the TD phase combined with the pilot study mean animal plasma and ocular tissue concentrations for each sampling time/dose group for Compound 18 and its metabolite Compound 4.
BA Assay: Quantitation Range 0.05 to 100 ng/mL for Compound 18, 0.15 to 100 ng/mL for Compound 4.
3. Pipet 50 μL of each type of pre-spiked ocular tissue samples (AH/VH) for QC samples, 50 μL of incurred aqueous humor, and vitreous humor sample (if applicable) into a 96 well plate.
Ocular Tissues Homogenate Preparation: Incurred rabbit ocular tissues were weighed in Genogrinder tubes (plastic tubes with small beads) at the time of removal from the animal and stored frozen (<−70° C.) until analysis. The rabbit incurred ocular tissues were thawed on wet ice. […]

[1] = TD Phase, Group 3, 4 h, Mean, BQL set to 0
[2] = TD Phase, Group 3, 4 h, individual animals
[3] = TD Phase, Group 3, 4 h, individual animals, BQL set to 0
[4] = TD Phase, Group 3, 4 h, individual animals, homogenate dilution factor 20
[5] = TD Phase, Group 3, 8 h, Mean, BQL set to 0
[6] = TD Phase, Group 3, 8 h, individual animals
[7] = TD Phase, Group 3, 8 h, individual animals, BQL set to 0
[8] = TD Phase, Group 3, 8 h, individual animals, homogenate dilution factor 20

CCCc1nn(C)c2c(=O)[nH]c(-c3cc(S(=O)(=O)N4CC(CCCO[N+](=O)[O-])C4)ccc3OCC)nc12 [Compound 18, 3-(1-((4-ethoxy-3-(1-methyl-7-oxo-3-propyl-6,7-dihydro-1H-pyrazolo[4,3-d]pyrimidin-5-yl)phenyl)sulfonyl)azetidin-3-yl)propyl nitrate]
Compound 18 Trahecular Meshwork Homogenate Conc. (TD Phase, Group 3, 2 h, individual animals, homogenate dilution factor 20): BQL (BQL = Below lower limit of quantitation (0.0500 ng/mL for Compound 18) | Compound 18 Retina Homogenate Conc. (TD Phase, Group 3, 2 h, individual animals, homogenate dilution factor 20 (164 for animal 207671)): 0.192 ng/mL and 3.47 ng/mL and 0.17 ng/mL | Compound 18 Aqueous Humor Conc. [1]: BQL (BQL = Below lower limit of quantitation (0.0500 ng/mL for Compound 18) | Compound 18 Plasma Conc. [1]: BQL (BQL = Below lower limit of quantitation (0.0500 ng/mL for Compound 18) | Compound 18 Vitreous Humor Conc. [1]: BQL (BQL = Below lower limit of quantitation (0.0500 ng/mL for Compound 18) | Compound 18 Aqueous Humor Conc. [2]: BQL (BQL = Below lower limit of quantitation (0.0500 ng/mL for Compound 18) | Compound 18 Plasma Conc. [2]: BQL (BQL = Below lower limit of quantitation (0.0500 ng/mL for Compound 18) | Compound 18 Vitreous Humor Conc. [2]: BQL (BQL = Below lower limit of quantitation (0.0500 ng/mL for Compound 18) | Final Compound 18 Optic Nerve Conc. [2]: 248 ng/g and 31.4 ng/g and 104 ng/g | Final Compound 18 Iris/Ciliary Body Conc. [3]: 5.78 ng/g and 0 ng/g and 8.84 ng/g | Final Compound 18 Lens Conc. [3]: 0 ng/g (2×) and 0.384 ng/g | Final Compound 18 Retina Conc. [3]: 39.6 ng/g and 6.02 ng/g and 36.2 ng/g | Compound 18 Lens Homogenate Conc. [2]: BQL (BQL = Below lower limit of quantitation (0.0500 ng/mL for Compound 18) | Cornea homogenate concentration [2]: BQL (BQL = Below lower limit of quantitation (0.0500 ng/mL for Compound 18) | Compound 18 Iris/Ciliary Body Homogenate Conc. [4]: BQL (BQL = Below lower limit of quantitation (0.0500 ng/mL for Compound 18) and 0.442 ng/mL | Compound 18 Optic Nerve Homogenate Conc. [4]: 12.4 ng/mL and 1.57 ng/mL and 5.20 ng/mL | Compound 18 Retina Homogenate Conc. [4]: 1.98 ng/mL and 0.301 ng/mL and 1.81 ng/mL | Compound 18 Aqueous Humor Conc. [5]: BQL (BQL = Below lower limit of quantitation (0.0500 ng/mL for Compound 18) | Compound 18 Vitreous Humor Conc. [5]: BQL (BQL = Below lower limit of quantitation (0.0500 ng/mL for Compound 18) | Compound 18 Aqueous Humor Conc. [6]: BQL (BQL = Below lower limit of quantitation (0.0500 ng/mL for Compound 18) | Compound 18 Plasma Conc. [6]: BQL (BQL = Below lower limit of quantitation (0.0500 ng/mL for Compound 18) | Compound 18 Vitreous Humor Conc. [6]: BQL (BQL = Below lower limit of quantitation (0.0500 ng/mL for Compound 18) | Final Compound 18 Optic Nerve Conc. [6]: 26.2 ng/g and 108 ng/g and 50.6 ng/g | Final Compound 18 Iris/Ciliary Body Conc. [7]: 2.90 ng/g and 0 ng/g (2×) | Final Compound 18 Lens Conc. [7]: 0 ng/g | Final Compound 18 Retina Conc. [7]: 8.70 ng/g and 3.64 ng/g and 9.16 ng/g | Compound 18 Lens Homogenate Conc. [6]: BQL (BQL = Below lower limit of quantitation (0.0500 ng/mL for Compound 18) | Cornea homogenate concentration [6]: BQL (BQL = Below lower limit of quantitation (0.0500 ng/mL for Compound 18) | Compound 18 Iris/Ciliary Body Homogenate Conc. [8]: BQL (BQL = Below lower limit of quantitation (0.0500 ng/mL for Compound 18) | Compound 18 Optic Nerve Homogenate Conc. [8]: 1.31 ng/mL and 5.41 ng/mL and 2.53 ng/mL | Compound 18 Retina Homogenate Conc. [8]: 0.435 ng/mL and 0.182 ng/mL and 0.458 ng/mL | Compound 18 Trahecular Meshwork Homogenate Conc. [8]: BQL (BQL = Below lower limit of quantitation (0.0500 ng/mL for Compound 18) | tissue of highest concentration (TD phase plasma and ocular tissues): highest in optic nerve and sclera/choroid | AUC0-8 (aqueous humor, vitreous humor, plasma, and lens (relatively low exposure)): 0.02-1.2 h*ng/mL or h*ng/g | AUC0-8 (cornea, Day 7, from mean concentrations): 209 ng·h/g | AUC0-8 (iris/ciliary body, Day 7, from mean concentrations): 150 ng·h/g | AUC0-8 (lens, Day 7, from mean concentrations): 1.19 ng·h/g | concentration at 1 h (male, New Zealand white, rabbit, aqueous humor, other: ocular instillation (eye drop), 0.8 mg/kg/day, TD Phase, Mean, BQL set to 0, read-out: Compound 18 Aqueous Humor Conc.): 0.063 ng/mL | concentration at 1 h (male, New Zealand white, rabbit, aqueous humor, other: ocular instillation (eye drop), 0.8 mg/kg/day, TD Phase, individual animals, read-out: Compound 18 Aqueous Humor Conc.): 0.189 ng/mL | concentration at 4 h (male, New Zealand white, rabbit, iris/ciliary body homogenate, topical, 2 mg/day, TD Phase, Group 3, 4 h, individual animals, homogenate dilution factor 20, read-out: Compound 18 Iris/Ciliary Body Homogenate Conc.): 0.289 ng/mL | concentration at 8 h (male, New Zealand white, rabbit, iris/ciliary body homogenate, topical, 2 mg/day, TD Phase, Group 3, 8 h, individual animals, homogenate dilution factor 20, read-out: Compound 18 Iris/Ciliary Body Homogenate Conc.): 0.145 ng/mL | concentration at 1 h (male, New Zealand white, rabbit, iris/ciliary body, topical, 0.798 mg/kg/day, TD Phase, Mean, read-out: Final Compound 18 Iris/Ciliary Body Conc.): 107 ng/g | concentration at 0.5 h (male, New Zealand white, rabbit, iris/ciliary body, topical, 0.798 mg/kg/day, TD Phase, Group 3, 0.5 h, Mean, read-out: Final Compound 18 Iris/Ciliary Body Conc.): 90.1 ng/g
